Test results as given in a melting point compilation (Tetko et al.; mined from patent text by program, amines drawn as free bases though some values may be those of a salt).

SMILES	melting point [°C]
c1ccc(Oc2ccc(-c3nc(-c4ccccc4)c(-c4ccccc4)o3)cc2)cc1	125 to 126
c1ccc(-c2nc3cc(-c4nc(COc5ccc(CCCn6ccnc6)cc5)co4)ccc3o2)cc1	166 to 167
COc1ccc([N+](=O)[O-])c(Br)c1OC	120 to 122
C=C1C2CCCCC2CC2C(OC)OCC12 (configuration not stated)	53 to 55
CCC(=O)N1N=C(c2ccc(N)cc2)c2cc(Cl)ccc2CC1C (configuration not stated)	118 to 120
COCCc1nc2c(N)nc3cc(OCc4cccc(C#N)c4)ccc3c2n1CC(C)(C)O	196 to 197
CC(=O)Oc1c(C)c(C)c2c(nc(COc3ccc(CC4SC(=O)NC4=O)cc3)n2C)c1C (configuration not stated)	250 to 253
Cc1c(CC(=O)O)c2ccccc2n1-c1ncnc2ccccc12	234 to 236
Oc1cc(Cl)c2c(C34CC5CC(CC(C5)C3)C4)noc2c1	215
CCOc1ccc(Nc2nc(NCc3ccco3)nc(Nc3ccc(O)cc3)n2)cc1	43 to 45
O=C1CCCc2c1ccc1c2OCO1	132 to 136
CC1N=C(N(C)N)NN=C1c1ccccc1 (configuration not stated)	140 to 141
NCCCN1CC=C(c2ccc(Cl)cc2)CC1	57 to 58
COc1nc(OC)c(C(C)C)c(C(=O)c2cc(C)cc(Br)c2)n1	122 to 123
CC(C)(C)c1cccc(S(=O)(=O)n2c(Cc3ccc(CNS(C)(=O)=O)cc3)cc3cc(C(F)(F)F)ccc32)c1	96
CCC[C@H]1CC[C@H](CCCOc2ccc(C(=O)O[C@H](c3ccccc3)[C@H](OC(=O)c3ccc(OCCC[C@H]4CC[C@H](CCC)CC4)cc3)c3ccccc3)cc2)CC1	75
COc1cc2c(cc1OC)CN(CCc1ccc(N)cc1)CC2	120
N#Cc1ccc(-c2ccc(-c3ccc(C#N)o3)cc2)cc1	216 to 218

SMILES	melting point [°C]
COc1cc(C=O)ccc1OCc1nc(N2CCOCC2)sc1C	127 to 128
Clc1cccc(-c2ccc3nncn3n2)c1	175 to 177
Sc1nc2ccccc2n1Cc1c(Cl)cccc1Cl	234 to 235
CCN(CC)c1nc(C(C)(C)C)nn1-c1c([N+](=O)[O-])cc(C(F)(F)F)cc1[N+](=O)[O-]	64 to 65
O=C1N(Cc2ncccc2C(F)(F)F)c2ccccc2C12COc1ccc3c(c12)OCCO3 (configuration not stated)	245 to 247
Cc1nc(Cl)c2n1-c1ccccc1C(c1ccccc1F)N(C)C2 (configuration not stated)	156 to 158
CCOC(=O)c1sc(Oc2ccc(-n3cccc3)cc2)c2c1CCc1cnn(C)c1-2	139 to 140
CCc1nnc(-c2ccc(OC)cc2)n1-c1ccccc1C	118
COc1cc2cc3c(Nc4ccc(Sc5nccn5C)c(Cl)c4)c(C#N)cnc3cc2cc1O	> 300
COCCCN(c1nc(Cl)nc(N(CCCOC)C2CC(C)(C)NC(C)(C)C2)n1)C1CC(C)(C)NC(C)(C)C1	160 to 161
O=C(C=Cc1cccnc1)N1CCc2c([nH]c3ccccc23)C1c1ccc2c(c1)OCO2 (configuration not stated)	240
CC(O)CC1NCc2ccsc2-n2cccc21 (configuration not stated)	130
COC(=O)c1cc(-c2ccc(SC)cc2)nn(CC=Cc2ccc(Cl)cc2)c1=O	123 to 126
CCOCc1nc2c(N)nc(C)c(C)c2n1NCCCS(C)(=O)=O	150 to 155
CCn1nc(OCCCc2ccc(OC(C)C)cc2OCc2ccc(C(F)(F)F)cc2)cc1CCC(=O)O	75 to 76
CC1N=C(c2ccccc2Cl)c2cc([N+](=O)[O-])ccc2NC1=S (single isomer, unassigned; (+))	258 to 260
CN(C)c1ccc(C2N(c3ccccc3)CCN2c2ccccc2)c(O)c1	161 to 165
Sc1n[nH]c(-n2cccn2)n1	245 to 247

Second part, the compound after the results:

melting point [°C]	SMILES
85	O=C1c2ccccc2C(=O)C2(CC3CCCC(C(F)(F)F)C3)OC12 (configuration not stated)
140 to 142	O=C(c1ccc(OCc2ccccc2)cc1O)c1ccc(OCc2ccccc2)cc1O
78.5 to 80	O=C(O)CCNC(=O)[C@H](Cc1ccccc1)OP(=O)(O)CCCCc1ccccc1
138	COc1cccc(C2(CCC(=O)O)NC(=O)NC2=O)c1 (configuration not stated)
199 to 201	CCN1c2ncc(C=O)cc2C(=O)N(C)c2ccc(Cl)nc21
103	C=CC(CC(O)C(CC1CCCCC1)NC(=O)C(Cc1ncc[nH]1)NC(=O)C(Cc1ccccc1)NC(=O)C(N)COC(C)(C)C)C(C)C (configuration not stated)
223 to 225	O=C(OCC1OC(n2ccc(=O)[nH]c2=O)CC1OC(=O)c1ccccc1)c1ccccc1 (configuration not stated)
252 to 253	COc1ccc(-c2ccc(C(=O)O)cn2)cc1
153 to 154	Cc1ccc(-c2cccc(/C=C/C(=O)Nc3ccc(CN4CCCC(CO)C4)cc3)c2)cc1 (configuration not stated)
> 250	N[C@@]1(C(=O)O)C[C@H](NC(=O)Nc2cccc(F)c2)[C@H]2[C@H](C(=O)O)[C@H]21 (relative stereo)
150 to 151	CC(=O)NCc1ccc(Oc2ccccc2C(=O)CN2CCN(c3ccncc3)CC2)cc1
161 to 163	CCOC(=O)c1cn(Cc2ccccc2OC)c2sc(-c3ccc(NC(C)=O)cc3)c(CN(C)Cc3ccccc3)c2c1=O
152 to 154	COc1cccc2c1C(=O)N(CSc1ccccc1)S2(=O)=O
93 to 96.5	CNC(=O)c1cccc(NCC(=O)NCCc2ccc(OC)c(OC)c2)c1
116 to 117	COCCOc1ccc(CCC(=O)O)c(Oc2ncc(C(F)(F)F)cc2Cl)c1
99	CCCCOc1cc(/C=C(\OCC)C(=O)O)ccc1OCCc1ccc(OS(=O)(=O)CCCC)c(F)c1

melting point [°C]	SMILES
177 to 179	COC(=O)COc1cccc2c(O)cccc12
105 to 108	Cc1ccc(C(=O)c2cccc3c2CCC3=O)cc1
144 to 146	COC(=O)c1ccccc1Nc1c(OC)ccc2ccccc12
104 to 105	CC1(C)OCC(COC(=O)Cc2cccc3c(=O)cc(C4=CCCCC4)oc23)O1 (configuration not stated)
200 to 202	N#CCN1c2ccc([N+](=O)[O-])cc2CS1(=O)=O
124 to 125	CCN1C[C@@H](SCc2ccc(OC)cc2)C[C@H]1C(N)=O
230	CC(=O)Nc1nc2c(Nc3ncnc4cc(Cl)ccc34)cccc2s1
189 to 191	COC(=O)c1c(Cc2ccc(C(=O)CBr)cc2)c(=O)c2ccc(C)nc2n1-c1ccccc1
170 to 173	COc1ccc(C(=O)Nc2ccc(CN3C(=O)[C@H]4CCC[C@H]4N(C(=O)CN4C(=O)c5ccccc5C4=O)c4ccccc43)cc2)cc1 (relative stereo)
212 to 220	CC12CC(NC(=O)OCC(Cl)(Cl)Cl)C3C(CCC4CC(O)CCC43C)C1CCC2C(=O)O (configuration not stated)
237	COC(=O)c1ccc(C(=O)Nc2cccc(Nc3nc(-c4cccnc4)cs3)c2)cc1
185 to 186	COC(=O)C(CSC(=O)c1ccccc1)NC(=O)C(=O)NC(CSC(=O)c1ccccc1)C(=O)OC (configuration not stated)
95 to 99	CN(CCc1cccs1)C(=O)C12CC3CC(CC(C3)C1)C2
82 to 84	CCCn1cncc1CSc1ccc(NC(=O)C(F)(F)F)cc1
116 to 117	Cc1ccc2oc(CC(=O)O)c(C)c2c1
